Experimental data published in US9402819B2, “Anti-HIV compound and preparation method and use thereof” (Sichuan University, priority 2012, dated 2016).
In brackets after ≈: the same amount, converted by molar mass.

Legend:
[1] = Cytotoxicity (CC50) in H9 cells; type: cell-based, human; conditions: human
Experimental: (§1) The anti-HIV activity was determined by the “Guiding Principles of Anti HIV Drug Unclinical Pharmacodynamics” of SFDA which is tested by technology standard assay according to International Universal Standards and Methods. Where in CC50, EC50 were measured twice and took the average.

[2] = Cytotoxicity (CC50) in C8166 cells; type: cell-based; conditions: human
Experimental: as §1

HIV-1IIIB [3] = experiment: Anti-HIV activity in H9 cells; type: cell-based; conditions: for TI: CC50/EC50
Experimental: as §1

HIV-1IIIB [4] = experiment: Anti-HIV activity in C8166 cells; type: cell-based; conditions: for TI: CC50/EC50
Experimental: as §1

[5] = Human immunodeficiency virus 1, HIV-1IIIB, H9 cells, read-out: EC50
[6] = Human immunodeficiency virus 1, HIV-1IIIB, C8166 cells, read-out: EC50

SMILES | CC50 ([1]; H9 cells, read-out: CC50) [µg/mL] | CC50 [2] [µg/mL] | EC50 (HIV-1IIIB [3]; [5]) [µg/mL] | EC50 (HIV-1IIIB [4]; [6]) [µg/mL] | TI (HIV-1IIIB [3]; H9 cells) | TI (HIV-1IIIB [4]; C8166 cells) | CC50 [1] [µg/mL] | EC50 (HIV-1IIIB [3]; Human immunodeficiency virus 1, H9) [µg/mL] | EC50 (HIV-1IIIB [4]; Human immunodeficiency virus 1, C8166) [µg/mL]
COc1ccccc1NC(=O)c1cc(C(F)(F)F)ccc1Sc1ccc([N+](=O)[O-])cc1 [Compound 22, N-(2-methoxyphenyl)-2-((4-nitrophenyl)thio)-5-(trifluoromethyl)benzamide] | > 200 |  |  |  |  |  |  |  | 
COc1ccccc1NC(=O)c1cc([N+](=O)[O-])ccc1Sc1ccc([N+](=O)[O-])cc1 [Compound 23, N-(2-methoxyphenyl)-5-nitro-2-(4-nitrophenylthio)benzamide] | > 200 | > 200 | > 200 | > 200 |  |  |  |  | 
COc1ccccc1NC(=O)c1cc(NC(C)=O)ccc1Sc1ccc([N+](=O)[O-])cc1 [Compound 29, 5-acetamido-N-(2-methoxyphenyl)-2-((4-nitrophenyl)thio)benzamide] | 74.6 (≈ 171 µM) | 110 (≈ 251 µM) | > 200 | 73.5 (≈ 168 µM) | <0.37 | 1.49 |  |  | 
Nc1cccc(NC(=O)c2c(N)cccc2Sc2ccc([N+](=O)[O-])cc2)c1 [Compound 49, 2-amino-N-(3-aminophenyl)-6-(4-nitroph-enylthio)benzamide] | > 200 |  | 41.5 (≈ 109 µM) |  | 4.82 |  |  |  | 
COc1cc(N)ccc1NC(=O)c1c(N)cccc1Sc1ccc([N+](=O)[O-])cc1 [Compound 50, 2-amino-N-(4-amino-2-methoxyphenyl)-6-(4-nitrophenylthio)benzamide] | 81.1 (≈ 197 µM) |  | 28.3 (≈ 68.9 µM) |  | 2.87 |  |  |  | 
COc1ccc(NC(=O)c2c(N)cccc2Sc2ccc([N+](=O)[O-])cc2)c(OC)c1 [Compound 51, 2-amino-N-(2,4-dimethoxyphenyl)-6-(4-nitrophenylthio)benzamide] | 18.1 (≈ 42.5 µM) |  | 18.8 (≈ 44.3 µM) |  | 0.96 |  |  |  | 
COc1ccccc1NC(=O)c1c(Sc2ccc([N+](=O)[O-])cc2)cccc1[N+](=O)[O-] [Compound 52, N-(2-methoxyphenyl)-2-nitro-6-(4-nitrophenylthio)benzamide] | > 200 |  | > 200 |  |  |  |  |  | 
Nc1ccccc1NC(=O)c1c(Sc2ccc([N+](=O)[O-])cc2)cccc1[N+](=O)[O-] [Compound 53, N-(2-aminophenyl)-2-nitro-6-(4-nitrophenylthio)benzamide] | > 200 |  | 43.7 (≈ 106 µM) |  | >4.58 |  |  |  | 
O=C(O)c1cccc(NC(=O)c2c(Sc3ccc([N+](=O)[O-])cc3)cccc2[N+](=O)[O-])c1 [Compound 54, 3-(2-nitro-6-(4-nitrophenylthio)benzamildo)benzoic acid] |  |  | 83.9 (≈ 191 µM) |  | 1.02 |  | 85.8 (≈ 195 µM) |  | 
Nc1ccc(NC(=O)c2c(Sc3ccc([N+](=O)[O-])cc3)cccc2[N+](=O)[O-])cc1 [Compound 55, N-(4-aminophenyl)-2-nitro-6-(4-nitrophenylthio)benzamide] | > 200 | > 200 | > 200 | > 200 |  |  |  |  | 
COc1ccccc1NC(=O)c1c(NS(=O)(=O)c2ccccc2)cccc1Sc1ccc([N+](=O)[O-])cc1 [Compound 56, N-(2-methoxyphenyl)-2-(4-nitrophenylthio)-6-(phenylsulfonamido)benzamide] | > 200 | > 200 | 137 (≈ 256 µM) | 24.5 (≈ 45.7 µM) | >1.46 | >8.17 |  |  | 
COc1ccccc1NC(=O)c1c(NS(=O)(=O)c2ccc(C)cc2)cccc1Sc1ccc([N+](=O)[O-])cc1 [Compound 57, N-(2-methoxyphenyl)-2-(4-methylphenylsulfonamido)-6-((4-nitrophenyl)thio)benzamide] | > 200 | 37.2 (≈ 67.8 µM) | 16.8 (≈ 30.6 µM) | 14.1 (≈ 25.6 µM) | >11.90 | 2.65 |  |  | 
COc1ccccc1NC(=O)c1c(N(C)C)cccc1S(=O)(=O)c1ccc([N+](=O)[O-])cc1 [Compound 58, 2-(dimethylamino)-N-(2-methoxyphenyl)-6-((4-nitrophenyl)sulfonyl)benzamide] | > 200 | > 200 |  |  |  |  |  |  | 
CNc1cccc(S(=O)(=O)c2ccc([N+](=O)[O-])cc2)c1C(=O)Nc1ccccc1OC [Compound 59, N-(2-methoxyphenyl)-2-(methylamino)-6-((4-nitrophenyl)sulfonyl)benzamide] |  | > 200 |  |  |  |  |  |  | 
COc1ccccc1NC(=O)c1c(NS(=O)(=O)c2ccc(C)cc2)cccc1S(=O)(=O)c1ccc([N+](=O)[O-])cc1 [Compound 60, N-(2-methoxyphenyl)-2-(4-methylphenyls-ulfonamido)-6-((4-nitrophenyl)sulfonyl)benzamide] | > 200 | > 200 | > 200 | 91.3 (≈ 157 µM) |  | >2.19 |  |  | 
COc1ccccc1NC(=O)c1c(NS(=O)(=O)c2ccccc2)cccc1S(=O)(=O)c1ccc([N+](=O)[O-])cc1 [Compound 61, N-(2-methoxyphenyl)-2-((4-nitrophenyl)sulfonyl)-6-(phenylsulfonamido)benzamide] | > 200 | > 200 |  |  |  |  |  |  | 

SMILES | CC50 ([1]; H9 cells, read-out: CC50) [µg/mL] | CC50 [2] [µg/mL] | EC50 (HIV-1IIIB [3]; [5]) [µg/mL] | EC50 (HIV-1IIIB [4]; [6]) [µg/mL] | TI (HIV-1IIIB [3]; H9 cells) | TI (HIV-1IIIB [4]; C8166 cells) | CC50 [1] [µg/mL] | EC50 (HIV-1IIIB [3]; Human immunodeficiency virus 1, H9) [µg/mL] | EC50 (HIV-1IIIB [4]; Human immunodeficiency virus 1, C8166) [µg/mL]
COc1ccccc1NC(=O)c1c(Sc2ccc([N+](=O)[O-])cc2)cccc1N1CCNCC1 [Compound 62, N-(2-methoxyphenyl)-2-((4-nitrophenyl)thio)-6-(piperazinyl)benzamide] | 14.2 (≈ 30.6 µM) | 10.2 (≈ 22.1 µM) | 3.83 (≈ 8.24 µM) | 3.43 (≈ 7.38 µM) | 3.71 | 2.99 |  |  | 
COc1ccccc1NC(=O)c1c(Sc2ccc([N+](=O)[O-])cc2)cccc1N1CCOCC1 [Compound 63, N-(2-methoxyphenyl)-2-morpholino-6-((4-nitrophenyl)thio)benzamide] | > 200 | > 200 | > 200 | 53.3 (≈ 115 µM) |  | >3.75 |  |  | 
COc1ccccc1NC(=O)c1c(NCCBr)cccc1Sc1ccc([N+](=O)[O-])cc1 [Compound 64, 2-((2-bromoethyl)amino)-N-(2-methoxyp-henyl)-6-((4-nitrophenyl)thio)benzamide] | 17.8 (≈ 35.5 µM) | 10.4 (≈ 20.7 µM) |  |  | 0.85 | 3.28 |  | 21 (≈ 41.8 µM) | 3.17 (≈ 6.31 µM)
COc1ccccc1NC(=O)c1c(NCP(=O)(OC(C)C)OC(C)C)cccc1Sc1ccc([N+](=O)[O-])cc1 [Compound 65, diisopropyl(((2-((2-methoxyphenyl)carbamoyl)-3-((4-nitro-phenyl)thio)phenyl)amino)methyl)phosphonate] | 25.4 (≈ 44.3 µM) | 18.8 (≈ 32.8 µM) |  |  |  |  |  |  | 
Nc1cccc(Sc2ccc([N+](=O)[O-])cc2)c1C(=O)Nc1ccccc1I [Compound 71, 2-amino-N-(2-iodophenyl)-6-((4-nitrophenyl)thio)benzamide] | > 200 | > 200 |  |  |  |  |  |  | 
Nc1cccc(S(=O)(=O)c2ccc([N+](=O)[O-])cc2)c1C(=O)Nc1ccccc1I [Compound 72, 2-amino-N-(2-iodophenyl)-6-((4-nitrophenyl)sulfonyl)benzamide] | > 200 | > 200 |  |  |  |  |  |  | 
CS(=O)(=O)Oc1ccccc1NC(=O)c1c(N)cccc1Sc1ccc([N+](=O)[O-])cc1 [Compound 73, 2-(2-amino-6-((4-nitrophenyl)thio)benzamildo)phenyl methanesulfonate] | > 200 | 194 | > 200 | 36.7 |  | 5.28 |  |  | 
COc1ccccc1NC(=O)c1c(N)cccc1Sc1cc(C)cc(C)c1 [Compound 74, 2-amino-6-((3,5-dimethylphenyl)thio)-N-(2-methoxyphenyl)benzamide] | > 200 | 68.6 (≈ 181 µM) | > 200 | 7.26 (≈ 19.2 µM) |  | 9.45 |  |  | 
COc1ccccc1NC(=O)c1c(N)cccc1S(=O)(=O)c1cc(C)cc(C)c1 [Compound 75, 2-amino-6-((3,5-dimethylphenyl)sulfonyl)-N-(2-methoxyphenyl)benzamide] | > 200 | > 200 | > 200 | > 200 |  |  |  |  | 
COc1ccccc1NC(=O)c1c(N)cccc1Sc1ccc(C(=O)O)cc1 [Compound 76, 4-((3-amino-2-((2-methoxyphenyl)carbamoyl)phenyl)thio)benzoic acid] | > 200 | > 200 |  |  |  |  |  |  | 
COc1ccccc1NC(=O)c1c(N)cccc1S(=O)(=O)c1ccc(C(=O)O)cc1 [Compound 77, 4-((3-amino-2-((2-methoxyphenyl)carbamoyl)phenyl)sulfonyl)benzoic acid] | > 200 | > 200 |  |  |  |  |  |  | 
COc1ccccc1NC(=O)c1c(NCCN)cccc1S(=O)(=O)c1ccc([N+](=O)[O-])cc1 [Compound 79, 2-((2-aminoethyl)amino)-N-(2-methoxyphenyl)-6-((4-nitrophenyl)sulfonyl)benzamide] | 99.5 (≈ 211 µM) | 90.9 (≈ 193 µM) | 101 (≈ 214 µM) | 93.5 (≈ 199 µM) | 0.99 | 0.97 |  |  | 
COc1ccccc1NC(=O)c1c(NCCO)cccc1Sc1ccc([N+](=O)[O-])cc1 [Compound 80, 2-((2-hydroxyethyl)amino)-N-(2-methoxyphenyl)-6-((4-nitrophenyl)thio)benzamide] | 116 (≈ 265 µM) | 93.5 (≈ 213 µM) | 19.1 (≈ 43.6 µM) | 19.4 (≈ 44.2 µM) | 6.08 | 4.81 |  |  | 
COc1ccccc1NC(=O)c1c(NCCO)cccc1S(=O)(=O)c1ccc([N+](=O)[O-])cc1 [Compound 81, 2-((2-hydroxyethyl)amino)-N-(2-methoxyphenyl)-6-((4-nitrophenyl)sulfonyl)benzamide] | 72.7 (≈ 154 µM) | 102 (≈ 217 µM) | 102 (≈ 216 µM) | 89.1 (≈ 189 µM) | 0.71 | 1.15 |  |  | 
COc1ccccc1NC(=O)c1c(NCC(N)=O)cccc1Sc1ccc([N+](=O)[O-])cc1 [Compound 82, 2-((2-amino-2-oxoethyl)amino)-N-(2-methoxyphenyl)-6-((4-nitrophenyl)thio)benzamide] | > 200 | > 200 |  |  |  |  |  |  | 
